The results in this text go back to patent US12006314B2, “Anti-cancer nuclear hormone receptor-targeting compounds” (Nuvation Bio Inc., priority 2021, dated 2024).

For assay [1], the target named is T1, AR (cytosol from LnCaP cells) (Homo sapiens, UniProt P10275, T878A).
T1 construct: endogenous in cells; host or cells: LNCaP cytosol
T1 sequence (P10275 1-920 T878A): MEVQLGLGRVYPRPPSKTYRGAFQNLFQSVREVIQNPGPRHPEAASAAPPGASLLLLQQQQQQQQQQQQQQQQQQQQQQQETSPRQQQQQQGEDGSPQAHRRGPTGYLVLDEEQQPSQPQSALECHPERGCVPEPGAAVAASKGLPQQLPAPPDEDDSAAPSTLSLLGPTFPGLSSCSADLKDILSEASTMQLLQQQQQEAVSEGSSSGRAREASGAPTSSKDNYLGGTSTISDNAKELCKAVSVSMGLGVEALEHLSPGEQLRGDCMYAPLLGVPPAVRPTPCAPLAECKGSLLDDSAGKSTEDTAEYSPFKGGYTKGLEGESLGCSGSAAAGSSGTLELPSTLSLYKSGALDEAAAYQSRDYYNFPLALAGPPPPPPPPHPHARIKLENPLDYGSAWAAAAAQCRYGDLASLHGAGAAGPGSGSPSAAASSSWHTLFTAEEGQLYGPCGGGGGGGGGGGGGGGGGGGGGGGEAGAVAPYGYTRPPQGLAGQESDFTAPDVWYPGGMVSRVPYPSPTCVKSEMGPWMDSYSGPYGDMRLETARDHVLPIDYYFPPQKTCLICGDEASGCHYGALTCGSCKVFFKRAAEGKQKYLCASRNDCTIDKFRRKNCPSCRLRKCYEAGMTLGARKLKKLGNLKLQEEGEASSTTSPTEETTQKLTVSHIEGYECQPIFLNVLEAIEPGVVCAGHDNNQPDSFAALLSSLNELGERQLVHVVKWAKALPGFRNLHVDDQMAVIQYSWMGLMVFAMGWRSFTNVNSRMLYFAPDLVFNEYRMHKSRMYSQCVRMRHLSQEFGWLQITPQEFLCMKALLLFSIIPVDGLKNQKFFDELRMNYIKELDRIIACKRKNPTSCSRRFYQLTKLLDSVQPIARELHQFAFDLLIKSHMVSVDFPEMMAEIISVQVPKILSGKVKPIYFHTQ
Nature of the assay: AR binding assay. The following applies: 3H-R1881 1 nM, 4° C. 24 hrs. The protocol:
AR binding assay: To assess AR binding, test compound (top dose 10 μM, 4 fold serial dilution, 8 point dose response) and control (progesterone) were transferred to the assay plate. Cytosol from LnCaP cells was added to the plate, followed by addition of radiolabeled ^3H-R1881 at a final concentration of 1 nM. The plate was sealed, and the reaction was incubated at 300 rpm at 4° C. for 24 hrs. Radioligand absorption buffer (10 mM Tris-HCl, pH 7.4; 1.5 mM EDTA; 1 mM DTT; 0.25% charcoal; 0.0025% dextran) was then added to the plate, mixed, and incubated at 4° C. for 15 minutes. The plate was then centrifuged at 3000 rpm for 30 minutes at 4° C. The supernatant was transferred to the scint-tube and Tri-carb was used for scintillation counting.

Assay [2] addresses T2, full-length androgen receptor (HEK293 cells stably expressing) (Homo sapiens, UniProt P10275).
T2 construct: HEK293 cells stably expressing the full-length androgen receptor were seeded; expressed in transfected cells
T2 sequence (P10275 1-920): T1 sequence (P10275 1-920 T878A) with A878T
Put plainly: AR antagonism assay. Format: cell-based. To be noted: testosterone 1 nM, 20 h, Steady-glo. The protocol: AR antagonism assay: To evaluate AR antagonist activity, test compound was added to the assay plate (top dose 10 μM, 3 fold serial dilution, 10 point dose response). HEK293 cells stably expressing the full-length androgen receptor were seeded at a density of 20000 cells/well in the assay plate. The assay plate was then incubated at room temperature for 10 minutes and at 37° C., 5% CO2 for 20 minutes. Testosterone is added to the assay plate at 1 nM final concentration and the assay plate incubated at 37° C., 5% CO2 for 20 h. After the incubation period, Steady-glo was added to the assay plate and mixed at room temperature for 20 minutes on an orbital shaker, before reading out on the EnVision plate reader.

The subject of another assay is LNCap cells. Nature of the assay: Cell viability assay LNCap. It counts as cell-based. To be noted: Homo sapiens, 144 h, 6 days, CellTiterGlo. The protocol: (§1) Cell viability assay: LNCap, 22Rv1, MCF7, MDAMB361, T47D, and IEC6 cells were seeded at a density of 500-2000 cells/well in 96 well plates, and a ‘T0’ (timepoint 0) was included along with the assay plate. The plates were then incubated at 37° C., 5% CO2 in a cell culture incubator overnight. On the next day, the ‘T0’ plate was assayed using CellTiterGlo (Promega, Inc) according to the manufacturer's instructions. The appropriate compounds were diluted in DMSO and added to the assay plate (final DMSO concentration of 0.1-0.2%) on the next day. The assay plates were incubated for 6 days at 37° C., 5% CO2. After the incubation period, the plates were assayed using CellTiterGlo (Promega, Inc) according to the manufacturer's instructions and luminescence was read on the EnVision plate reader. Inhibition of the tested compounds was determined by the following formula: Inhibition rate (%)=(1−(RLU compound−RLU day0)/(RLU control−RLU day0))*100%. GraphPadPrism was used to analyze the data and determine GI50/IC50 values.
In general terms: In ATP-based viability assays light output follows the ATP content of the culture.

Another assay relates to 22Rv1 cells. Put plainly: Cell viability assay 22Rv1. It counts as cell-based. The following applies: Homo sapiens, 22Rv1, 144 h; 6 days, CellTiterGlo. The protocol:
as §1

A further assay concerns IEC6 cells. Put plainly: Cell viability assay IEC6. It counts as cell-based. To be noted: Rattus norvegicus, IEC-6, 144 h; 6 days, CellTiterGlo. On the procedure: as §1

Residue numbers refer to the chain shown, from its start. Some results are limits rather than exact numbers.

Turning to `CCc1cc2ncc(CN3CCN(c4ccc(C(=O)NCC5CCN(c6ccc(C(=O)N[C@H]7CC[C@H](Oc8ccc(C#N)c(Cl)c8)CC7)nn6)CC5)nc4)CC3)cc2[nH]c1=O` [Compound 1, N-((1r,4r)-4-(3-Chloro-4-cyanophenoxy)cyclohexyl)-6-(4-((5-(4-((7-ethyl-6-oxo-5,6-dihydro-1,5-naphthyridin-3-yl)methyl)piperazin-1-yl)picolinamido)methyl)piperidin-1-yl)pyridazine-3-carboxamide], the IC50 (commonly the concentration at which inhibition is half-maximal) in assay [1] is 0.1 to 1 µM; in assay [2], greater than 10 µM; in the assay on IEC6 cells, greater than 30 µM. Further, the GI50 (usually the concentration giving 50% growth inhibition) with LNCap cells is no more than 0.5 µM; with 22Rv1 cells, 0.5 to 5 µM.

For the molecule `CCc1cc2ncc(CN3CCN(CC4CCN(c5ccc(C(=O)N[C@H]6CC[C@H](Oc7ccc(C#N)c(Cl)c7)CC6)nn5)CC4)CC3)cc2[nH]c1=O` [Compound 4, N-((1r,4r)-4-(3-Chloro-4-cyanophenoxy)cyclohexyl)-6-(4-((4-((7-ethyl-6-oxo-5,6-dihydro-1,5-naphthyridin-3-yl)methyl)piperazin-1-yl)methyl)piperidin-1-yl)pyridazine-3-carboxamide], the values for the IC50 (in assay [1]; in assay [2]; with IEC6 cells) were less than 0.1 µM, greater than 10 µM and greater than 30 µM, respectively. The GI50 with LNCap cells and with 22Rv1 cells was no more than 0.5 µM each time.

On to `CCc1cc2ncc(CN3CCN(CC4CCN(c5ccc(C(=O)N[C@H]6C(C)(C)[C@H](Oc7ccc(C#N)c(Cl)c7)C6(C)C)nn5)CC4)CC3)cc2[nH]c1=O` [Compound 13, N-((1r,3r)-3-(3-Chloro-4-cyanophenoxy)-2,2,4,4-tetramethylcyclobutyl)-6-(4-((4-((7-ethyl-6-oxo-5,6-dihydro-1,5-naphthyridin-3-yl)methyl)piperazin-1-yl)methyl)piperidin-1-yl)pyridazine-3-carboxamide], for which the IC50 in assay [1] is less than 0.1 µM; in assay [2] it was greater than 10 µM; with IEC6 cells, 0.5 to 5 µM. The GI50 in the assay on LNCap cells and in the assay on 22Rv1 cells was 0.5 to 5 µM each time.

For the molecule `CCc1cc2ncc(CN3CCN(c4ccc(C(=O)N5CCN(CC6CCN(c7ccc(C(=O)N[C@H]8CC[C@H](Oc9ccc(C#N)c(Cl)c9)CC8)nn7)CC6)CC5)nc4)CC3)cc2[nH]c1=O` [Compound 59, N-((1r,4r)-4-(3-Chloro-4-cyanophenoxy)cyclohexyl)-6-(4-((4-(5-(4-((7-ethyl-6-oxo-5,6-dihydro-1,5-naphthyridin-3-yl)methyl)piperazin-1-yl)picolinoyl)piperazin-1-yl)methyl)piperidin-1-yl)pyridazine-3-carboxamide], the 50% inhibitory concentration (IC50) is less than 0.1 µM in assay [1], greater than 10 µM in assay [2] and greater than 30 µM in the assay on IEC6 cells. Besides, the GI50 in the assay on LNCap cells and with 22Rv1 cells was 0.5 to 5 µM in each case.

`CCc1cc2ncc(CN3CCN(c4ccc(C(=O)N5CCN(C(=O)C6CCN(c7ccc(C(=O)N[C@H]8CC[C@H](Oc9ccc(C#N)c(Cl)c9)CC8)nn7)CC6)CC5)nc4)CC3)cc2[nH]c1=O` [Compound 60, N-((1r,4r)-4-(3-Chloro-4-cyanophenoxy)cyclohexyl)-6-(4-(4-(5-(4-((7-ethyl-6-oxo-5,6-dihydro-1,5-naphthyridin-3-yl)methyl)piperazin-1-yl)picolinoyl)piperazine-1-carbonyl)piperidin-1-yl)pyridazine-3-carboxamide]: the IC50 in assay [1] is less than 0.1 µM; in assay [2], greater than 10 µM; in the assay with IEC6 cells it was greater than 30 µM. For the same molecule, the GI50 in the assay on LNCap cells and in the assay on 22Rv1 cells was 0.5 to 5 µM each time.

Take `CCc1cc2ncc(CN3CCN(c4ccc(-c5nnc([C@H](Nc6ccc(C#N)c(Cl)c6)[C@H](C)O)o5)cc4)CC3)cc2[nH]c1=O` [Compound 63, 2-Chloro-4-(((1R,2S)-1-(5-(4-(4-((7-ethyl-6-oxo-5,6-dihydro-1,5-naphthyridin-3-yl)methyl)piperazin-1-yl)phenyl)-1,3,4-oxadiazol-2-yl)-2-hydroxypropyl)amino)benzonitrile]: the half-inhibitory concentration (IC50) is 0.1 to 1 µM in assay [1], greater than 10 µM in assay [2] and greater than 30 µM in the assay with IEC6 cells. Moreover, the concentration for 50% growth inhibition (GI50) in the assay on LNCap cells is 0.5 to 5 µM; with 22Rv1 cells it was 5 to 30 µM.

With `CCc1cc2ncc(CN3CCN(c4ccc(-c5nnc([C@H](Nc6ccc(C#N)c(Cl)c6C)[C@H](C)O)o5)cc4)CC3)cc2[nH]c1=O` [Compound 64, 2-Chloro-4-(((1R,2S)-1-(5-(4-(4-((7-ethyl-6-oxo-5,6-dihydro-1,5-naphthyridin-3-yl)methyl)piperazin-1-yl)phenyl)-1,3,4-oxadiazol-2-yl)-2-hydroxypropyl)amino)-3-methyl Benzonitrile], the IC50 was 1 to 10 µM in assay [1], greater than 10 µM in assay [2] and 0.5 to 5 µM in the assay with IEC6 cells. The GI50 with LNCap cells was in the range of 0.5 to 5 µM; in the assay with 22Rv1 cells, 5 to 30 µM.

On to `CCc1cc2ncc(CN3CCN(C[C@H]4CC[C@H](COc5cc(F)c([C@@H]6c7[nH]c8ccccc8c7C[C@@H](C)N6CC(C)(C)F)c(F)c5)CC4)CC3)cc2[nH]c1=O` [Compound 75, 7-((4-(((1R,4r)-4-((3,5-Difluoro-4-((1R,3R)-2-(2-fluoro-2-methylpropyl)-3-methyl-2,3,4,9-tetrahydro-1H-pyrido[3,4-b]indol-1-yl)phenoxy)methyl)cyclohexyl)methyl)piperazin-1-yl)methyl)-3-ethyl-1,5-naphthyridin-2(1H)-one], for which the IC50 in the assay with IEC6 cells was 5 to 30 µM.
